Values joined by “and” are separate entries in the source; they are usually repeats but may differ in a detail not shown here. Identical values can stand only once.
How the values were obtained:
[1] = biological target: T1, FIH (Homo sapiens, UniProt Q9NWT6); assay: FIH steady-state kinetic parameters (SPE-MS, initial hydroxylation rates); format: biochemical; set-up: slope of initial reaction rate: unit not given here
Outline: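 FIH-catalysed CA1-20 peptide hydroxylation with varied 2OG or 2OG derivative, 20 μM ammonium iron(II) sulfate plus L-ascorbic acid, in 50 mM Tris, 50 mM NaCl, pH 7.5, 20 °C, monitored by SPE-MS (~1 sample/40 s). Initial rates fitted to Michaelis–Menten for vapp and Kapp; independent triplicates.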

[2] = biological target: T1, FIH; assay: Competition assay in a single reaction vessel, FIH-catalyzed hydroxylation (SPE-MS); format: biochemical; conditions: Fig 2c; for substrate hydroxylation (% conversion): 20 μM 1, FIH
Description: Mean of three independent runs (n = 3; mean ± SD). […] Cosubstrates: a 20 μM 2OG; b 20 μM 2OG; c 20 μM 1; d 20 μM 12; e 20 μM 12 and 100 μM 2OG; f 100 μM 14. Source data are provided as a Source Data file.
Mean of three independent runs (n = 3; mean ± SD). […] Source data are provided as a Source Data file.
Peptide turnover was monitored by SPE-MS using the same instrument configuration (with the exception that the peptides were eluted from the SPE cartridge with 0.1%v/v aqueous formic acid in 80/20 v/v acetonitrile/water) as described above.
FIH and AspH-catalyzed peptide hydroxylations were analyzed simultaneously using SPE-MS as described in the
Methods section; competition experiments were performed in the same reaction vessel using equimolar 2OG
oxygenase and substrate concentrations. […]
Source data are provided as a Source Data file.
FIH and AspH-catalyzed peptide hydroxylations were analyzed simultaneously using SPE-
MS as described in the Methods section; competition experiments were performed in the same reaction vessel
using equimolar 2OG oxygenase and substrate concentrations. […]
2OG, 100 μM 14. Source data are provided as a Source Data file.

T1 sequence (Q9NWT6 whole entry): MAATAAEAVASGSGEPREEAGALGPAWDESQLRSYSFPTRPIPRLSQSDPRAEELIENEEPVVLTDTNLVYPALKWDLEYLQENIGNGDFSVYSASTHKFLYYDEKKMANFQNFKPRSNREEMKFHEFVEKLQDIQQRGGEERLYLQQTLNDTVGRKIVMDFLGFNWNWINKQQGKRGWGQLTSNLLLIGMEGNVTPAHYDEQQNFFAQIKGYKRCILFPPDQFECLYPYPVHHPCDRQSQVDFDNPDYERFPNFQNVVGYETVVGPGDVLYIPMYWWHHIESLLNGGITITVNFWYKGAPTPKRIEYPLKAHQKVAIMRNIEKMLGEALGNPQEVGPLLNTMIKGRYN

CC(CC(=O)O)C(=O)C(=O)O (stereo not shown) [compound 1, 3-methyl-2OG]
SPE-MS determined concentration of hydroxylated HIF-1a peptide ([1]; 0.5 uM compound 1, time 2.098 min): 0.06331 µM and 0.08965 µM and 0.06287 µM
SPE-MS determined concentration of hydroxylated HIF-1a peptide ([1]; 0.5 uM compound 1, time 2.797 min): 0.08372 µM and 0.1109 µM and 0.07695 µM
SPE-MS determined concentration of hydroxylated HIF-1a peptide ([1]; 0.5 uM compound 1, time 3.49667 min): 0.08826 µM and 0.1256 µM and 0.08643 µM
SPE-MS determined concentration of hydroxylated HIF-1a peptide ([1]; 1 uM compound 1, time 0.699833 min): 0.05043 µM and 0.061 µM and 0.05097 µM
SPE-MS determined concentration of hydroxylated HIF-1a peptide ([1]; 1 uM compound 1, time 2.098 min): 0.09957 µM and 0.1098 µM and 0.1306 µM
SPE-MS determined concentration of hydroxylated HIF-1a peptide ([1]; 1 uM compound 1, time 2.797 min): 0.1199 µM and 0.1466 µM and 0.1681 µM
SPE-MS determined concentration of hydroxylated HIF-1a peptide ([1]; 1 uM compound 1, time 3.49667 min): 0.1336 µM
SPE-MS determined concentration of hydroxylated HIF-1a peptide ([1]; 2 uM compound 1, time 0.699833 min): 0.07885 µM and 0.08056 µM and 0.05916 µM
SPE-MS determined concentration of hydroxylated HIF-1a peptide ([1]; 2 uM compound 1, time 2.098 min): 0.1678 µM and 0.1886 µM and 0.1681 µM
SPE-MS determined concentration of hydroxylated HIF-1a peptide ([1]; 2 uM compound 1, time 2.797 min): 0.2164 µM and 0.22 µM and 0.1894 µM
SPE-MS determined concentration of hydroxylated HIF-1a peptide ([1]; 2 uM compound 1, time 3.49667 min): 0.2473 µM and 0.2744 µM and 0.2266 µM
SPE-MS determined concentration of hydroxylated HIF-1a peptide ([1]; 4 uM compound 1, time 0.699833 min): 0.1172 µM and 0.1135 µM and 0.107 µM
SPE-MS determined concentration of hydroxylated HIF-1a peptide ([1]; 4 uM compound 1, time 2.098 min): 0.2558 µM and 0.2656 µM and 0.234 µM
SPE-MS determined concentration of hydroxylated HIF-1a peptide ([1]; 4 uM compound 1, time 2.797 min): 0.3116 µM and 0.3222 µM and 0.2973 µM
SPE-MS determined concentration of hydroxylated HIF-1a peptide ([1]; 4 uM compound 1, time 3.49667 min): 0.3622 µM and 0.3831 µM and 0.3473 µM
SPE-MS determined concentration of hydroxylated HIF-1a peptide ([1]; 8 uM compound 1, time 0.699833 min): 0.1456 µM and 0.1338 µM and 0.1272 µM
SPE-MS determined concentration of hydroxylated HIF-1a peptide ([1]; 8 uM compound 1, time 2.098 min): 0.3135 µM and 0.3095 µM and 0.2806 µM
SPE-MS determined concentration of hydroxylated HIF-1a peptide ([1]; 8 uM compound 1, time 2.797 min): 0.4067 µM and 0.3823 µM and 0.3379 µM
SPE-MS determined concentration of hydroxylated HIF-1a peptide ([1]; 8 uM compound 1, time 3.49667 min): 0.4757 µM and 0.4602 µM and 0.409 µM
SPE-MS determined concentration of hydroxylated HIF-1a peptide ([1]; 16 uM compound 1, time 0.699833 min): 0.1765 µM and 0.1666 µM and 0.1574 µM
SPE-MS determined concentration of hydroxylated HIF-1a peptide ([1]; 16 uM compound 1, time 2.098 min): 0.4139 µM and 0.367 µM and 0.3575 µM
SPE-MS determined concentration of hydroxylated HIF-1a peptide ([1]; 16 uM compound 1, time 2.797 min): 0.521 µM and 0.462 µM and 0.4549 µM
SPE-MS determined concentration of hydroxylated HIF-1a peptide ([1]; 16 uM compound 1, time 3.49667 min): 0.6245 µM and 0.5486 µM and 0.5372 µM
SPE-MS determined concentration of hydroxylated HIF-1a peptide ([1]; 32 uM compound 1, time 0.699833 min): 0.1826 µM and 0.1844 µM and 0.1573 µM
SPE-MS determined concentration of hydroxylated HIF-1a peptide ([1]; 32 uM compound 1, time 2.098 min): 0.3964 µM and 0.4231 µM and 0.3597 µM
SPE-MS determined concentration of hydroxylated HIF-1a peptide ([1]; 32 uM compound 1, time 2.797 min): 0.4756 µM and 0.5305 µM and 0.4654 µM
SPE-MS determined concentration of hydroxylated HIF-1a peptide ([1]; 32 uM compound 1, time 3.49667 min): 0.5827 µM and 0.6364 µM and 0.5668 µM
slope of initial reaction rate ([1]; CA1-20, 1 μM 1): 0.003599 and 0.003561 and 0.003828
slope of initial reaction rate ([1]; CA1-20, 2 μM 1): 0.005878 and 0.006514 and 0.003549
slope of initial reaction rate ([1]; CA1-20, 4 μM 1): 0.007274 and 0.005274 and 0.008096
slope of initial reaction rate ([1]; CA1-20, 8 μM 1): 0.01215 and 0.01007 and 0.00891
slope of initial reaction rate ([1]; HIF-1a788-822, 0.5 μM 1): 0.000467 and 0.000683 and 0.000488
slope of initial reaction rate ([1]; HIF-1a788-822, 1 μM 1): 0.000739 and 0.000996 and 0.000679
slope of initial reaction rate ([1]; HIF-1a788-822, 2 μM 1): 0.001185 and 0.001312 and 0.001139
slope of initial reaction rate ([1]; HIF-1a788-822, 4 μM 1): 0.001713 and 0.001863 and 0.001678
slope of initial reaction rate ([1]; HIF-1a788-822, 8 μM 1): 0.002198 and 0.002166 and 0.001912
slope of initial reaction rate ([1]; HIF-1a788-822, 16 μM 1): 0.002859 and 0.002469 and 0.002609
slope of initial reaction rate ([1]; HIF-1a788-822, 32 μM 1): 0.002446 and 0.002883 and 0.002629
substrate hydroxylation (% conversion) ([2]; 0 min): 3.506 and 4.816 and 5.633
substrate hydroxylation (% conversion) ([2]; 0.700167 min): 19.4856 and 18.7444 and 19.2793
substrate hydroxylation (% conversion) ([2]; 1.39933 min): 32.3038 and 30.8139 and 30.8824
substrate hydroxylation (% conversion) ([2]; 2.10017 min): 43.2797 and 40.6551 and 40.5787
substrate hydroxylation (% conversion) ([2]; 2.79917 min): 51.3082 and 49.0078 and 49.2389
substrate hydroxylation (% conversion) ([2]; 3.5005 min): 58.9995 and 56.3411 and 56.671
substrate hydroxylation (% conversion) ([2]; 4.20083 min): 64.1723 and 62.5798 and 63.2033
substrate hydroxylation (% conversion) ([2]; 4.9 min): 69.5252 and 67.0447 and 68.2025
substrate hydroxylation (% conversion) ([2]; 5.60117 min): 73.4042 and 71.6094 and 72.347
substrate hydroxylation (% conversion) ([2]; 6.29967 min): 77.1725 and 74.6235 and 74.9327
substrate hydroxylation (% conversion) ([2]; 7.00033 min): 79.731 and 76.5169 and 77.4955
substrate hydroxylation (% conversion) ([2]; 7.7025 min): 81.4904 and 79.3791 and 79.9762
substrate hydroxylation (% conversion) ([2]; 8.40233 min): 83.8334 and 81.9815 and 82.8865
substrate hydroxylation (% conversion) ([2]; 9.10283 min): 86.0072 and 84.3134 and 84.9864
substrate hydroxylation (% conversion) ([2]; 9.806 min): 87.2729 and 86.3042 and 86.5893
substrate hydroxylation (% conversion) ([2]; 11.207 min): 89.9552 and 84.6882 and 85.7483
FIH-catalyzed CA1–20 hydroxylation ([2]; 20 μM 1, after about 8 min): > 80%
